# From patent publication US20240383904A1, “HETEROCYCLIC COMPOUNDS” (Hoffmann-La Roche Inc., priority 2021, published 2024)
# Target: T1, MAGL (Homo sapiens, UniProt Q99685)
# T1 sequence (Q99685 1-303): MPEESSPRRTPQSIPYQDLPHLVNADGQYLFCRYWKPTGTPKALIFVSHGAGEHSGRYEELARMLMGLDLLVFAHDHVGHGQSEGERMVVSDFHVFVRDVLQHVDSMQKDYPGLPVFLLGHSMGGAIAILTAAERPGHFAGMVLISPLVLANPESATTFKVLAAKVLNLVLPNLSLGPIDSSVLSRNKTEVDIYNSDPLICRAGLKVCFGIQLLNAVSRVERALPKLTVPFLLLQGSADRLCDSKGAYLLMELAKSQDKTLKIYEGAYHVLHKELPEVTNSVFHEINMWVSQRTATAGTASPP
# Assay: 2-AG assay: MAGL inhibitory activity by hydrolysis of 2-arachidonoylglycerol to arachidonic acid, followed by mass spectrometry
# Assay type: biochemical
# Conditions: 15 min preincubation, 30 min reaction at RT, 8 μM 2-arachidonoylglycerol
# Description: Compounds of formula (I) were profiled for MAGL inhibitory activity by determining the enzymatic activity by following the hydrolysis of the natural substrate 2-arachidonoylglycerol (2-AG) resulting in arachidonic acid, which can be followed by mass spectrometry. This assay is hereinafter abbreviated “2-AG assay”.
# Compounds of formula (I) were profiled for MAGL inhibitory activity by determining the enzymatic activity by following the hydrolysis of the natural substrate 2-arachidonoylglycerol (2-AG) resulting in arachidonic acid, which can be followed by mass spectrometry. This assay is hereinafter abbreviated “2-AG assay”. The 2-AG assay was carried out in 384 well polypropylene assay plates. Compound dilutions were made in 100% DMSO in a polypropylene plate in 3-fold dilution steps to give a final concentration range in the assay from 12.5 μM to […]. Compound dilutions were added to MAGL protein in assay buffer (50 mM TRIS, 1 mM EDTA, 0.01% (v/v) Tween-20, 2.5% (v/v) DMSO). After shaking, the plate was incubated for 15 min at RT. To start the reaction, 2-arachidonoylglycerol in assay buffer was added. The final concentrations in the assay was […] for MAGL protein and 8 μM 2-arachidonoylglyerol. After shaking and 30 min incubation at RT, the reaction was quenched by the addition of two assay volumes of acetonitrile containing 4 μM of d8-arachidonic acid. The amount of arachidonic acid formed was traced by an online SPE system (Agilent Rapidfire) coupled to a triple quadrupole mass spectrometer. A C18 SPE cartridge (Agilent G9205A) was used in an acetonitrile/water liquid setup. The mass spectrometer was operated in negative electrospray mode following the mass transitions 303.1→259.1 for arachidonic acid and 311.1→267.0 for d8-arachidonic acid. The activity of the compounds was calculated based on the ratio of intensities [arachidonic acid/d 8-arachidonic acid].
row,SMILES,IC50
1,"O=C1NCC2(CN(C(=O)N3CC4(CC(Cc5ccc(C(F)(F)F)cc5F)C4)C3)C2)N1 [Example 25, 2-[6-[2-fluoro-4-(trifluoromethyl)benzyl]-2-azaspiro[3.3]heptane-2-carbonyl]-2,5,7-triazaspiro[3.4]octan-6-one]",0.05 nM
2,"O=C1NC2(CO1)CN(C(=O)N1CC3(CC(Cc4ccc(OC(F)(F)F)cn4)C3)C1)C2 [Example 26, 2-[6-[[5-(trifluoromethoxy)-2-pyridyl]methyl]-2-azaspiro[3.3]heptane-2-carbonyl]-7-oxa-2,5-diazaspiro[3.4]octan-6-one]",0.11 nM
3,"CS(=O)(=O)c1cc(C(F)(F)F)ccc1CC1CC2(C1)CN(C(=O)N1CC3(COC(=O)N3)C1)C2 [Example 27, 2-[6-[2-mesy1-4-(trifluoromethyl)benzyl]-2-azaspiro[3.3]heptane-2-carbonyl]-7-oxa-2,5-diazaspiro[3.4]octan-6-one]",0.14 nM
4,"O=C1NC2(CO1)CN(C(=O)N1CC3(CC(Cc4ncc(C(F)(F)F)cc4F)C3)C1)C2 [Example 28, 2-[6-[[3-fluoro-5-(trifluoromethyl)-2-pyridyl]methyl]-2-azaspiro[3.3]heptane-2-carbonyl]-7-oxa-2,5-diazaspiro[3.4]octan-6-one]",0.23 nM
5,"CS(=O)(=O)c1cc(CC2CC3(C2)CN(C(=O)N2CC4(COC(=O)N4)C2)C3)ccc1C(F)(F)F [Example 29, 2-[6-[3-mesyl-4-(trifluoromethyl)benzyl]-2-azaspiro[3.3]heptane-2-carbonyl]-7-oxa-2,5-diazaspiro[3.4]octan-6-one]",0.34 nM
6,"CS(=O)(=O)c1cc(F)cc(CC2CC3(C2)CN(C(=O)N2CC4(COC(=O)N4)C2)C3)c1 [Example 30, 2-[6-(3-fluoro-5-mesyl-benzyl)-2-azaspiro[3.3]heptane-2-carbonyl]-7-oxa-2,5-diazaspiro[3.4]octan-6-one]",0.45 nM
7,"O=C1NC2(CO1)CN(C(=O)N1CC3(CC(Cc4ccc(F)cn4)C3)C1)C2 [Example 31, 2-[6-[(5-fluoro-2-pyridyl)methyl]-2-azaspiro[3.3]heptane-2-carbonyl]-7-oxa-2,5-diazaspiro[3.4]octan-6-one]",0.61 nM
8,"O=C1NC2(CO1)CN(C(=O)N1CC3(CC(Cc4cnc(C(F)(F)F)nc4)C3)C1)C2 [Example 32, 2-[6-[[2-(trifluoromethyl)pyrimi-din-5-y1]methyl]-2-azaspiro[3.3]heptane-2-carbonyl]-7-oxa-2,5-diazaspiro[3.4]octan-6-one]",0.67 nM
9,"CS(=O)(=O)c1cccc(CC2CC3(C2)CN(C(=O)N2CC4(COC(=O)N4)C2)C3)c1 [Example 33, 2-[6-(3-mesylbenzyl)-2-azaspiro[3.3]heptane-2-carbonyl]-7-oxa-2,5-diazaspiro[3.4]octan-6-one]",0.87 nM
10,"O=C1NCC2(CN(C(=O)N3CC4(CC(Cc5ccc(F)cc5C(F)(F)F)C4)C3)C2)N1 [Example 34, 2-[6-[4-fluoro-2-(trifluoromethyl)benzyl]-2-azaspiro[3.3]heptane-2-carbonyl]-2,5,7-triazaspiro[3.4]octan-6-one]",1.09 nM
11,"CS(=O)(=O)c1cc(C(F)(F)F)ccc1CC1CC2(C1)CN(C(=O)N1CC3(CCC(=O)N3)C1)C2 [Example 35, 2-[6-[2-mesyl-4-(trifluoromethyl)benzyl]-2-azaspiro[3.3]heptane-2-carbonyl]-2,5-diazaspiro[3.4]octan-6-one]",1.43 nM

# Continued, values first:
row,IC50,SMILES
1,1.43 nM,"O=C1NC2(CO1)CN(C(=O)N1CC3(CC(Cc4ccc(C(F)(F)F)nn4)C3)C1)C2 [Example 36, 2-[6-[[6-(trifluoromethyl)pyrida-zin-3-yl]methyl]-2-azaspiro[3.3]heptane-2-carbonyl]-7-oxa-2,5-diazaspiro[3.4]octan-6-one]"
2,1.91 nM,"O=C1NC2(CO1)CN(C(=O)N1CC3(CC(Cc4cncc(F)c4)C3)C1)C2 [Example 37, 2-[6-[(5-fluoro-3-pyridyl)methyl]-2-azaspiro[3.3]heptane-2-carbonyl]-7-oxa-2,5-diazaspiro[3.4]octan-6-one]"
3,2.34 nM,"O=C1NCC2(CN(C(=O)N3CC4(CC(Cc5ccc(F)cc5F)C4)C3)C2)N1 [Example 38, 2-[6-(2,4-difluorobenzyl)-2-azaspiro[3.3]heptane-2-carbonyl]-2,5,7-triazaspiro[3.4]octan-6-one]"
4,2.38 nM,"CS(=O)(=O)c1ccc(CC2CC3(C2)CN(C(=O)N2CC4(CCC(=O)N4)C2)C3)cc1C(F)(F)F [Example 39, 2-[6-[4-mesy1-3-(trifluoromethyl)benzyl]-2-azaspiro[3.3]heptane-2-carbonyl]-2,5-diazaspiro[3.4]octan-6-one]"
5,3.04 nM,"CS(=O)(=O)c1cc(CC2CC3(C2)CN(C(=O)N2CC4(CCC(=O)N4)C2)C3)ccc1C(F)(F)F [Example 40, 2-[6-[3-mesyl-4-(trifluoromethyl)benzyl]-2-azaspiro[3.3]heptane-2-carbonyl]-2,5-diazaspiro[3.4]octan-6-one]"
6,5.52 nM,"CS(=O)(=O)c1cc(F)ccc1CC1CC2(C1)CN(C(=O)N1CC3(CCC(=O)N3)C1)C2 [Example 41, 2-[6-(4-fluoro-2-mesyl-benzyl)-2-azaspiro[3.3]heptane-2-carbonyl]-2,5-diazaspiro[3.4]octan-6-one]"
7,53.4 nM,"O=C1NCC2(CN(C(=O)N3CC4(CC(Cc5ccc(C(F)(F)F)nc5)C4)C3)C2)N1 [Example 42, 2-[6-[[6-(trifluoromethyl)-3-pyridyl]methyl]-2-azaspiro[3.3]heptane-2-carbonyl]-2,5,7-triazaspiro[3.4]octan-6-one]"
8,646 nM,"O=C1NC2(CCO1)CN(C(=O)N1CC3(CC(Cc4cnc(C(F)(F)F)cn4)C3)C1)C2 [Example 43, 2-[6-[[5-(trifluoromethyl)pyrazin-2-yl]methyl]-2-azaspiro[3.3]heptane-2-carbonyl]-7-oxa-2,5-diazaspiro[3.5]nonan-6-one]"
9,0.32 nM,"CS(=O)(=O)c1ccc(CC2CC3(C2)CN(C(=O)N2CC4(COC(=O)N4)C2)C3)cc1C(F)(F)F [Example 44, 2-[6-[4-mesyl-3-(trifluoromethyl)benzyl]-2-azaspiro[3.3]heptane-2-carbonyl]-7-oxa-2,5-diazaspiro[3.4]octan-6-one]"
10,26.3 nM,"O=C1NCC2(CN(C(=O)N3CC4(CCC(Cc5ccc(C(F)(F)F)cn5)CC4)C3)C2)N1 [Example 45, 2-[7-[[5-(trifluoromethyl)-2-pyridyl]methyl]-2-azaspiro[3.5]nonane-2-carbonyl]-2,5,7-triazaspiro[3.4]octan-6-one]"
11,0.15 nM,"O=C1NC2(CO1)CN(C(=O)N1CC3(CCC(Cc4ccc(C(F)(F)F)cn4)C3)C1)C2 (stereo not drawn) [Example 46, 2-[6-[[5-(trifluoromethyl)-2-pyridyl]methyl]-2-azaspiro[3.4]octane-2-carbonyl]-7-oxa-2,5-diazaspiro[3.4]octan-6-one]"
12,2.94 nM,"O=C1NC2(CO1)CN(C(=O)N1CC3(CCC(Oc4ccc(C(F)(F)F)nn4)CC3)C1)C2 [Example 47, 2-[7-[6-(trifluoromethyl)pyrida-zin-3-y1]oxy-2-azaspiro[3.5]nonane-2-carbonyl]-7-oxa-2,5-diazaspiro[3.4]octan-6-one]"
13,0.15 nM,"O=C1NC2(CO1)CN(C(=O)N1CC3(CC(c4ccc(S(=O)(=O)C(F)(F)F)cc4)C3)C1)C2 [Example 48, 2-[6-(4-triflylphenyl)-2-azaspiro[3.3]heptane-2-carbonyl]-7-oxa-2,5-diazaspiro[3.4]octan-6-one]"
